From patent US20090099160A1, “4-(4-(Imidazol-4-Yl) Pyrimidin-2-Ylamino) Benzamides as CDK Inhibitors” (priority 2004, published 2009) come the findings set out here.

In one data set the target is T1, CDK2/Cyclin E (Homo sapiens, UniProt P24941).
T1 construct: made in house; host or cells: Sf21 insect cells (baculovirus co-infection, pVL1393); the GST-Rb substrate was made in E. coli BL21 (DE3) pLysS
Briefly: CDK2/Cyclin E in vitro kinase assay (Scintillation Proximity Assay, GST-Rb substrate). The format is biochemical. The conditions noted are these: read-out: CDK2 inhibitory activity IC50. As to the method:
The compounds were tested in an in vitro kinase assay in 96 well format using Scintillation Proximity Assay (SPA—obtained from Amersham) for measuring incorporation of [γ-33-P]-Adenosine Triphosphate into a test substrate (GST-Retinoblastoma protein; GST-Rb). In each well was placed the compound to be tested (diluted in DMSO and water to correct concentrations) and in control wells either roscovitine as an inhibitor control or DMSO as a positive control. […]
The plates were sealed with Topseal-S plate sealers, left for two hours then spun at 2500 rpm, 1124 xg., for 5 minutes. The plates were read on a Topcount for 30 seconds per well. […]
E. coli paste was resuspended in 10 ml/g of NETN buffer (50 mM Tris pH 7.5, 120 mM NaCl, 1 mM EDTA, 0.5% v/v NP-40, 1 mM PMSF, 1 μg/ml leupeptin, 1 ug/ml aprotinin and 1 ug/ml pepstatin) and sonicated for 2×45 seconds per 100 ml homogenate. […] The final product was analysed by Sodium Dodeca Sulfate (SDS) PAGE (Polyacrylamide gel) using 8-16% Tris-Glycine gels (Novex, San Diego, USA).
The open reading frames of CDK2 and Cyclin E were isolated by reverse transcriptase-PCR using HeLa cell and activated T cell mRNA as a template and cloned into the insect expression vector pVL1393 (obtained from Invitrogen 1995 catalogue number: V1392-20). […]
On the technique in general: In a scintillation proximity assay essentially only radioactivity close to the scintillant gives light.

Data set [1] in a line: High Throughput Blood Level Assay - Mice. The format is in vivo. Particulars: male, Alpk..APfCD-1, plasma, 2 mg/kg; AP mouse, oral cocktail dosing, normalised to 1 mg/kg. From the text: (§1) The level of oral exposure of a compound can be measured by the following assay. This assay gives a semi-quantitative measure of the concentration of the compound achieved in the blood at a number of time points. Data available include Cmax (highest concentration achieved), and the AUC (area under the plasma concentration/time curve) for the compound. This gives a high throughput measure of likelihood of obtaining blood levels for each compound following oral dosing and as the data are normalised for dose, it allows direct comparison of each compound.
The above assay may be run using mice in place of rats, but with the following variations.
For a profile in mice 10 male mice are dosed at the same level as to rats but they are not fasted or predosed with water. Furthermore, samples from mice are all terminal, with 2 mice per time point.
The mice used in the above experiment were AP mice. The AP mouse was originally obtained from a commercial breeder Schoefields in 1956. The stock was rederived by fostering onto a CD-1 Charles Rivers (commercial supplier) outbred mouse and has remained a closed colony ever since. The nomenclature for these animals is Alpk..APfCD-1.

Data set [2] can be described thus: High Throughput Blood Level Assay - Rat. It counts as in vivo. Particulars: male, Alderley Park (AP), Wistar derived, Alpk..APfSD, plasma, oral cocktail dosing, normalised to a 1 mg/kg dose.
Excerpt: as §1
A cocktail of 6 compounds is formulated in propylene glycol using a combination of vortex mixing, sonication and high speed shear mixing. This formulation consists of 5 test compounds (1 mg/ml) and a standard (0.5 mg/ml). The resulting formulation is a solution or a stable (≧several hours) suspension.
The formulation is dosed (2 ml/kg) to two male rats (170-250 gm) which have been fasted for ≦16 hours then pre-dosed with water (˜10 ml/kg). The dose for the test compounds is 2 mg/kg and for the standard it is 1 mg/kg. […]
Samples are analysed by LC/MS-MS and the concentration obtained is used to determine the Cmax μg/ml (maximum compound level detected), AUC0-6 hr μg/hr/ml (area under the curve) and tmax hr (time that the maximum compound levels have been measured) for a given compound to give an indication of exposure […]

On to `CNC(=O)c1ccc(Nc2ncc(F)c(-c3cnc(C)n3C(C)C)n2)cc1C` [Example 28], for which the concentration for half-maximal inhibition (IC50) at CDK2/Cyclin E turned out to be 3 nM.

Turning to `Cc1ncc(-c2nc(Nc3ccc(C(=O)NC4CC4)c(F)c3)ncc2F)n1C(C)C` [Example 25], in data set [1], the AUC was 1.5 µM·h and the peak level (Cmax) was 680 nM. In data set [2], the exposure (AUC) amounted to 0.83 µM·h and the Cmax was determined as 400 nM.

As a reminder, the IC50 is the concentration at which inhibition is half-maximal. The AUC is concentration integrated over time. The term Cmax denotes the highest concentration seen after dosing.
